Reference: patent US20130324412A1, “N-ALKOXYAMIDES OF 6-(SUBSTITUTED PHENYL)-4-AMINOPICOLINATES AND 2-(SUBSTITUTED PHENYL)-6-AMINO-4-PYRIMIDINECARBOXYLATES AND THEIR USE AS SELECTIVE HERBICIDES FOR CROPS” (DOW AGROSCIENCES LLC, priority 2009, published 2013)

Legend:
Format in all cases: in vivo
[1] = test system: lambsquarters (Chenopodium album); assay: Postemergence herbicidal activity in oilseed rape (canola), lambsquarters; design: unit: g ai/ha; settings: oilseed rape (canola) test, visual rating after 21 d, probit analysis, dose to kill or control 80 percent
Method: (§1) Seeds of oilseed rape (canola) and the desired weed species were planted in Sun Gro MetroMix® 360 planting mixture, which typically has a pH of 6.0 to 6.8 and an organic matter content of about 30 percent, in plastic pots with a surface area of 95 cm^2. When required to ensure good germination and healthy plants, a fungicide treatment and/or other chemical or physical treatment was applied. The plants were grown for 15-28 d in a greenhouse with an approximate 15-h photoperiod which was maintained at about 23-29° C. during the day and 22-28° C. during the night. Nutrients and water were added on a regular basis and supplemental lighting was provided with overhead metal halide 1000-Watt lamps as necessary. The oilseed rape (canola) plants were utilized for testing when they reached the third or fourth true leaf stage. The weed species were utilized at the fourth true leaf stage.
A weighed amount, determined by the highest rate to be tested, of each test compound was dissolved in 4 mL of a 97:3 v/v mixture of acetone and DMSO to obtain concentrated stock solutions. […] The concentrated stock solutions obtained were diluted with 20 mL of an aqueous mixture containing acetone, water and Agri-Dex crop oil concentrate, in a 16.7:82.1:1.25 v/v ratio to obtain spray solutions containing the highest application rates. Additional application rates were obtained by serial dilution of 12 mL of the high rate solution into a solution containing 2 mL of 97:3 v/v mixture of acetone and DMSO and 10 mL of an aqueous mixture containing acetone, water and Agri-Dex crop oil concentrate, in a 16.7:82.1:1.25 v/v ratio to obtain ½×, ¼×, ⅛× and 1/16× rates of the high rate. Compound requirements are based upon a 12 mL application volume at a rate of 187 L/ha. Formulated compounds were applied to the plant material with an overhead Mandel track sprayer equipped with 8002E nozzles calibrated to deliver 187 L/ha over an application area of 0.503 m^2 at a spray height of 18 inches (43 cm) above the average plant canopy height. Control plants were sprayed in the same manner with the solvent blank.
The treated plants and control plants were placed in a greenhouse as described above and watered by sub-irrigation to prevent wash-off of the test compounds. After 21 d, the condition of the test plants as compared with that of the untreated plants was determined visually and scored on a scale of 0 to 100 percent where 0 corresponds to no injury and 100 corresponds to complete kill.
By applying the well-accepted probit analysis as described by J. Berkson in Journal of the American Statistical Society 1953, 48, 565, and by D. Finney in “Probit Analysis” Cambridge University Press (1952), the above data can be used to calculate GR20 and GR80 values, which are defined as growth reduction factors that correspond to the effective dose of herbicide required to kill or control 20 percent or 80 percent, respectively, of a target plant.

corn (Zea mays) = assay: Postemergence herbicidal activity in corn, crop; settings: visual rating after 21 d, probit analysis, dose to kill or control 20 percent
Method: as §1, with “corn” for “oilseed rape (canola)”, “MetroMix” for “MetroMix®”, “7-21” for “15-28”, “second” for “third or fourth”, “first or second” for “fourth”
(§2) A weighed amount, determined by the highest rate to be tested, of each test compound was dissolved in 4 mL of a 97:3 v/v mixture of acetone and DMSO to obtain concentrated stock solutions. […] The concentrated stock solutions obtained were diluted with 20 mL of an aqueous mixture containing acetone, water, isopropyl alcohol, DMSO, Atplus 411F crop oil concentrate, and Triton X-155 surfactant in a 48.5:39:10:1.5:1.0:0.02 v/v ratio to obtain spray solutions containing the highest application rates. […]
(§3) The treated plants and control plants were placed in a greenhouse as described above and watered by sub-irrigation to prevent wash-off of the test compounds. After 21 d, the condition of the test plants as compared with that of the untreated plants was determined visually and scored on a scale of 0 to 100 percent where 0 corresponds to no injury and 100 corresponds to complete kill. […]

[2] = test system: sicklepod (Casia obtusifolia); assay: Postemergence herbicidal activity in corn, sicklepod; settings: corn test, visual rating after 21 d, probit analysis, dose to kill or control 80 percent
Method: as §1, with “corn” for “oilseed rape (canola)”, “MetroMix” for “MetroMix®”, “7-21” for “15-28”, “second” for “third or fourth”, “first or second” for “fourth”
as §2, §3

SMILES | CHEAL GR80 [1] | ZEAMX GR20 (corn (Zea mays)) | CASOB GR80 [2]
CONC(=O)c1nc(-c2ccc(Cl)c(OC)c2F)cc(N)c1Cl [Compound 2, 4-Amino-3-chloro-6-(4-chloro-2-fluoro-3-methoxyphenyl)-N-methoxypicolinamide] | 22 | >35 g ai/ha | 17 g ai/ha
COc1c(Cl)ccc(-c2cc(N)c(Cl)c(C(=O)NOCC(C)C)n2)c1F [Compound 1, 4-amino-3-chloro-6-(4-chloro-2-fluoro-3-methoxyphenyl)-N-(2-methylpropoxy)picolinamide] | <8.75 | >35 g ai/ha | 8.75 g ai/ha
